The data set in a line: solvent given as SMILES.

“And” between values parts separate entries of the source, which are not always exact repeats. Equal values may be shown once.

For `CC(C)(C)c1ccc2c(c1)c1cc(C(C)(C)C)ccc1n2-c1ccccc1-c1nc(-c2ccccc2P(=O)(c2ccccc2)c2ccccc2)nc(-c2ccccc2P(=O)(c2ccccc2)c2ccccc2)n1`, the emission maximum by setting is: (in C1CCOC1) 515.1 nm; (in CC#N) 548.81 nm; (in CC(C)=O) 532.75 nm; (in CN(C)C=O) 539.75 nm; (in Cc1ccccc1) 498.41 nm; (in ClC(Cl)Cl) 511.13 nm. Besides, the emission maximum by setting is: (in ClCCl) 526.23 nm; (in O=P(c1ccccc1)(c1ccccc1)c1ccccc1Oc1ccccc1P(=O)(c1ccccc1)c1ccccc1) 504 nm.
Turning to `c1ccc2c(c1)c1ccccc1n2-c1ccc2c(c1)c1ccccc1n2-c1ccc(-n2c3ccccc3c3cc(-n4c5ccccc5c5ccccc54)ccc32)cc1`, the emission maximum by setting is: (in C1CCOC1) 372 nm; (in CC(C)=O) 379 nm; (in Cc1ccccc1) 372 nm; (in ClCCl) 383 nm.
In turn, `N#CC1=C(N)n2c(=O)c3ccccc3c(=O)n2C1c1cccs1` (centres undefined) yielded an emission maximum (in CS(C)=O) of 446 nm.
As for `CC(C)(C)c1ccc2oc3nc4oc5ccc(N(c6ccccc6)c6ccccc6)cc5c4cc3c2c1`, the emission maximum (in ClC(Cl)Cl) amounted to 379 nm.
For the setting “in Cc1ccccc1”, `O=Cc1nc2ccc(C#Cc3ccc(N(c4ccc(C#Cc5ccc6nc(C=O)sc6c5)cc4)c4ccc(C#Cc5ccc6nc(C=O)sc6c5)cc4)cc3)cc2s1` showed an emission maximum of 500 nm.
Molecule `C(=C\c1ncc(-c2ccc(OCc3ccccc3)c(OCc3ccccc3)c2)o1)/c1cccc(N2CCN(c3ccccc3)CC2)c1` displayed an emission maximum (in ClCCl) of 500 nm.
`CCCCCCCCC1(CCCCCCCC)c2cc(-c3ccc(C(=O)OC)cc3)ccc2-c2ccc(-c3ccc(C(=O)OC)cc3)cc21` showed an emission maximum (in ClC(Cl)Cl) of 388 nm.
Turning to `COc1ccc(C2=[N+]3C(=Nc4c(-c5ccccc5)cc(-c5ccc(OC)cc5)n4[B-]3(F)F)C(c3ccccc3)=C2)cc1`, the emission maximum came to 715 nm (in ClC(Cl)Cl) and 715 nm (in ClCCl).
With `Cc1ccc(C#Cc2ccc3ccc(=O)oc3c2)cc1`, the emission maximum (in CC#N) was 440 nm.
Regarding `C(#Cc1nc2ccccc2s1)c1ccc(N(c2ccccc2)c2ccccc2)cc1`, where the note is “in Cc1ccccc1”, the emission maximum was determined as 437 nm.
For `CCCC1(CCC)c2cc(-c3ccc(OC)cc3)ccc2-c2ccc(-c3ccc4c(c3)C(CCC)(CCC)c3cc(-c5ccc(OC)cc5)ccc3-4)cc21`, for the setting “in C1CCCCC1”, the emission maximum is on record as 395 nm.
`CCn1c2ccccc2c2cc3c(cc21)c1ccccc1n3CC` displayed an emission maximum (in ClC(Cl)Cl) of 425 nm.
For the molecule `O=c1oc2ccccc2cc1-c1ccc(-c2ccc(-c3cc4ccccc4oc3=O)cc2)cc1`, the emission maximum (in ClCCl) turned out to be 430 nm.
For the molecule `O=[N+]([O-])c1ccc([N+]2=CC3=C(O[B-]2(F)F)c2ccccc2SC3)cc1`, the emission maximum (in ClCCl) amounted to 575 nm.
`C[Si](C)(C)c1ccc2ccc3cccc4ccc1c2c34`: the emission maximum by setting is: (in CCCCCC) 346 nm; (in CO) 376 nm; (in ClCCl) 377 nm.
`CN(C)c1cc2c(cc1F)c(=O)c1cc(F)c(N3CCCCC3)cc1n2C` displayed an emission maximum (in CCO) of 443 nm.
In turn, `O=c1oc2ccccc2nc1-c1ccccc1` displayed an emission maximum (in c1ccccc1) of 450 nm.
With `COC(=O)C[C@H](NC(=O)[C@H](Cc1c[nH]c2ccccc12)NC(=O)OC(C)(C)C)C(=O)OC`, the emission maximum is on record as 330 nm (in CC#N), 327 nm (in CCOC(C)=O) and 338 nm (in CO).
On to `CCOC(=O)c1cc(C(=O)OCC)c2cc(N)ccc2n1`, for which the emission maximum (in CCO) was 537 nm.
Under “in ClCCl”, `O=c1c2cccc3cccc(c32)c2nc3c4ccccc4c4ccccc4c3n12` showed an emission maximum of 589 nm.
Regarding `O=S1(=O)C(c2ccsc2)=C(c2ccsc2)c2ccccc21`, the emission maximum (in C1CCOC1) came to 433 nm.
The molecule `CN(c1ccccc1)c1ccc(/C=C2\C(=O)c3ccccc3S2(=O)=O)cc1` registered an emission maximum (in C1CCOC1) of 532 nm; an emission maximum (in C1COCCO1) of 542 nm; an emission maximum (in CC#N) of 511 nm; an emission maximum (in CC(C)=O) of 537 nm; an emission maximum (in CCOC(C)=O) of 533 nm; an emission maximum (in CN(C)C=O) of 524 nm. Also, the emission maximum runs as follows: (in CO) 525 nm; (in CS(C)=O) 552 nm; (in Cc1ccccc1) 576 nm; (in ClC(Cl)Cl) 532 nm; (in ClCCl) 547 nm.
As for `c1ccc(N2N=C(c3cccc4ccccc34)CC2c2ccc3ccc4cccc5ccc2c3c45)cc1` (centres undefined), the emission maximum (in ClCCl) was 455 nm.
Consider `COc1ccccc1C1=[N+]2C(=Cc3c4c(c(-c5ccccc5OC)n3[B-]2(F)F)C2CCC4CC2)C2=C1C1CCC2CC1`, for which the emission maximum (in ClCCl) worked out at 583 nm.
Turning to `COc1ccc2c(c1)c1cc(OC)ccc1n2-c1ccc2c(c1)-c1cc(-n3c4ccc(OC)cc4c4cc(OC)ccc43)ccc1P2(=O)c1ccccc1`, the emission maximum reads like this: (in Cc1ccccc1) 476 nm; (in c1ccc2c(c1)c1ccccc1n2-c1ccc(-c2ccc(-n3c4ccccc4c4ccccc43)cc2)cc1) 490 nm.
As for `CC(C)(C)NC(=O)c1ccc(Br)c2ccc3c4ccccc4c4ccccc4c3c12`, for the setting “in ClCCl”, the emission maximum is given as 388 nm.
Turning to `CCN(CC)c1ccc2c(-c3ccccc3C(=O)O)c3c([o+]c2c1)/C(=C/c1ccc(N(C)C)s1)CCC3`, the emission maximum (in ClCCl) is reported as 766 nm.
On to `Cc1ccc(C2=C3C=c4c(oc5ccccc45)=[N+]3[B-](F)(F)n3c2cc2c4ccccc4oc23)cc1`, for which the emission maximum was 596.5 nm (in C1CCCCC1); 596.5 nm (in C1CCOC1); 595.5 nm (in CC#N); 594.5 nm (in CCOC(C)=O); 598.5 nm (in CN(C)C=O); 594.5 nm (in CO). Further, the emission maximum is, setting by setting: (in Cc1ccccc1) 603 nm; (in ClCCl) 599 nm and 597 nm.
Turning to `COc1c2ccccc2c(OC)c2c1c1c(F)cccc1n2C`, the emission maximum is listed as 411 nm (in C1CCCCC1), 421 nm (in CC#N), 417 nm (in CO) and 418 nm (in ClCCl).
`COc1ccc(C2=[N+]3C(=Nc4c5c6ccccc6c6ccc(C(C)(C)C)cc6c5c(-c5ccc(OC)cc5)n4[B-]3(F)F)c3c2c2cc(C(C)(C)C)ccc2c2ccccc32)cc1` had an emission maximum (in Cc1ccccc1) of 741 nm.
As for `COc1ccc(-c2csc(-c3ccncc3)n2)cc1`, the emission maximum is on record as 560 nm (in CC#N); 457 nm (in CCO); 451 nm (in CN(C)C=O); 455 nm (in CS(C)=O); 415 nm (in Cc1ccccc1); 548 nm (in ClCCl).
Molecule `O=c1oc2ccccc2cc1C#Cc1ccccc1` displayed an emission maximum (in CC#N) of 406 nm.
In the case of `c1ccc(-c2nc(-c3ccccc3)nc(-c3ccc(-n4c5ccccc5c5cc6c7ccccc7n7c8ccccc8c(c54)c67)cc3)n2)cc1`, the emission maximum is, setting by setting: (in Cc1ccccc1) 450 nm; (in O=P(c1ccccc1)(c1ccccc1)c1ccc2oc3ccc(P(=O)(c4ccccc4)c4ccccc4)cc3c2c1) 460 nm.
On to `CC(C)[Si](C#Cc1c2nsnc2c(C#C[Si](C(C)C)(C(C)C)C(C)C)c2nc3c(nc12)Cc1ccccc1-3)(C(C)C)C(C)C`, for which, under “in CCCCCC”, the emission maximum is 551 nm.
With `CC(C)CCCC(C)CCN1C(=O)c2ccc3c(-c4ccccc4)c4c5ccc6c7c(ccc(c(-c8ccccc8)c4c4ccc(c2c34)C1=O)c75)C(=O)N(CCC(C)CCCC(C)C)C6=O` (centres undefined), where the note is “in ClCCl”, the emission maximum is reported as 704 nm.
For the setting “in CC#N”, `O=C(O)c1ccccc1-c1nc(-c2ccccc2)c2ccccn12` displayed an emission maximum of 494 nm.
As to `Cc1cc(C)c(B(c2ccc(-c3ccc4ccc5cccc6ccc3c4c56)cc2)c2c(C)cc(C)cc2C)c(C)c1`, the emission maximum (in Cc1ccccc1) was 431 nm.

These data come from the Deep4Chem optical property database.
